# In paper PMC7736828 (2020):
# Experiments:
# [1] = tested on: 95 Lla (RNA, riboswitch) GGGAAAAUAGAAUAAAUACUCCACCGGGAGUUAAAUCGUAUGAACGAUUGUUUGCAUUUCAGUAGGUCUGAGAAGAAAUGUAGAUAGUCGUUCUU; experiment: in-line probing; settings: 20 mM Mg2+, 100 mM K+, 50 mM Tris-HCl pH 8.3 (at 23 °C); for apparent KD: ~48 h; for binding: highest tested 10 mM
# [2] = tested on: 92 Rti (RNA, riboswitch) GGGACAAUUGAAGCAUCUGCCGCCGGGUAGACCAAGAACAAAGCAUGUGCGCCCCUAUCGUUAGGCCAUAGAAGAUAGGGGAAAGCGCAUGC; experiment: in-line probing; settings: 20 mM Mg2+, 100 mM K+, 50 mM Tris-HCl pH 8.3 (at 23 °C), ~48 h
# [3] = tested on: 95 Lla M1 (G66C) (RNA, riboswitch) GGGAAAAUAGAAUAAAUACUCCACCGGGAGUUAAAUCGUAUGAACGAUUGUUUGCAUUUCAGUAGCUCUGAGAAGAAAUGUAGAUAGUCGUUCUU; experiment: in-line probing; settings: 20 mM Mg2+, 100 mM K+; 50 mM Tris-HCl pH 8.3 (at 23 °C); highest tested 10 mM
# [4] = tested on: 95 Lla M2 (U67A) (RNA, riboswitch) GGGAAAAUAGAAUAAAUACUCCACCGGGAGUUAAAUCGUAUGAACGAUUGUUUGCAUUUCAGUAGGACUGAGAAGAAAUGUAGAUAGUCGUUCUU; experiment: in-line probing; settings: 20 mM Mg2+, 100 mM K+; 50 mM Tris-HCl pH 8.3 (at 23 °C); highest tested 10 mM
# [5] = tested on: 95 Lla M3 (G72C) (RNA, riboswitch) GGGAAAAUAGAAUAAAUACUCCACCGGGAGUUAAAUCGUAUGAACGAUUGUUUGCAUUUCAGUAGGUCUGACAAGAAAUGUAGAUAGUCGUUCUU; experiment: in-line probing; settings: 20 mM Mg2+, 100 mM K+; 50 mM Tris-HCl pH 8.3 (at 23 °C); highest tested 10 mM
# [6] = tested on: 95 Lla M4 (G62C) (RNA, riboswitch) GGGAAAAUAGAAUAAAUACUCCACCGGGAGUUAAAUCGUAUGAACGAUUGUUUGCAUUUCACUAGGUCUGAGAAGAAAUGUAGAUAGUCGUUCUU; experiment: in-line probing; settings: 20 mM Mg2+, 100 mM K+; 50 mM Tris-HCl pH 8.3 (at 23 °C); up to 10 mM; folding differs from wt
# [7] = tested on: 147 Lla (RNA, riboswitch) AAAAUAGAAUAAAUACUCCACCGGGAGUUAAAUCGUAUGAACGAUUGUUUGCAUUUCAGUAGGUCUGAGAAGAAAUGUAGAUAGUCGUUCUUUUUUUAGCUGAGGAGGCGAAAAUGACUUGGCUAUAUCUACUAAUAGCAGGAAUUU; experiment: in vitro transcription termination assay; settings: 1.8 mM NTPs, 37 °C; for EC50: E. coli RNA polymerase, 8 min, co-transcriptional, full-length fraction; for binding: highest tested 10 mM
# [8] = tested on: GGAM-2 (Cfi 63) (RNA, mRNA element) GGAAUGGUACGGUCGUACCAGAACCGUGCGCGGGACGGCGGACCUGACACCCGGCGCGCAGCG; experiment: in-line probing and in vitro transcription; settings: 20 mM Mg2+, 100 mM K+; initial experiments, data not shown; highest concentration not stated
# [9] = tested on: GGAM-2 (Cfi 80) (RNA, mRNA element) GGUCGCAGGAAUGGUACGGUCGUACCAGAACCGUGCGCGGGACGGCGGACCUGACACCCGGCGCGCAGCGGUCGCCCACC; experiment: in-line probing and in vitro transcription; settings: 20 mM Mg2+, 100 mM K+; initial experiments, data not shown; highest concentration not stated
# [10] = tested on: GGAM-3 (Bub 73) (RNA, mRNA element) GGGAUCCAUCCGGGGUACCGCUCCCGCAAGUUGAUCGCGCUCGGUACAAGCGCGAAAUCAGGAGCGGUACGCC; experiment: in-line probing and in vitro transcription; settings: 20 mM Mg2+, 100 mM K+; initial experiments, data not shown; highest concentration not stated
# [11] = tested on: GGAM-3 (Bub 59) (RNA, mRNA element) GGGAUCCAUCCGGGGUACCGCUCCCGCAAGUUGAUCGCGCUCGGUACAAGCGCGAAAUC; experiment: in-line probing and in vitro transcription; settings: 20 mM Mg2+, 100 mM K+; initial experiments, data not shown; highest concentration not stated
# [12] = tested on: GGAM-4 (Msu 80) (RNA, mRNA element) GGGAAACUAAGGUCCGCCCGCUAGGCCGGCCGCGCCUCGACGCGCCGGCUCUCGUCAAUCGAACACGCGCGGUACCCAUG; experiment: in-line probing and in vitro transcription; settings: 20 mM Mg2+, 100 mM K+; initial experiments, data not shown; highest concentration not stated
# [13] = tested on: GGAM-4 (Msu 98) (RNA, mRNA element) GGGCGACAGCCUCUCCUCGCGAAACUAAGGUCCGCCCGCUAGGCCGGCCGCGCCUCGACGCGCCGGCUCUCGUCAAUCGAACACGCGCGGUACCCAUG; experiment: in-line probing and in vitro transcription; settings: 20 mM Mg2+, 100 mM K+; initial experiments, data not shown; highest concentration not stated
# [14] = tested on: GGAM-5 (Nov 77) (RNA, mRNA element) GGGUGGAUGCGCCGAGAAUAGAGUAGCAGGGUGGUGUCUCCUGCGCCCGUAAGGGUUCUUCCCAGCCACGGCGUCAA; experiment: in-line probing and in vitro transcription; settings: 20 mM Mg2+, 100 mM K+; initial experiments, data not shown; highest concentration not stated
# [15] = tested on: GGAM-6 (Sru 111) (RNA, mRNA element) GGGUCAAUACUCGUAUCGGACGGCAAGCAAUCGCCUGCUUGCCAGAUAAGGUGUCCAUAGACACUGGAACGGGUUAUUCAGGCCAGAUAAGAUCGCAUUCUUAUCUGGCCU; experiment: in-line probing and in vitro transcription; settings: 20 mM Mg2+, 100 mM K+; initial experiments, data not shown; highest concentration not stated
smiles,measurement,setting,value
N=C(N)N,apparent KD,[1],210 ± 20 µM
same,apparent KD,[2],190 ± 30 µM
same,binding,[3],no
same,binding,[4],no
same,binding,[5],no
same,binding,[6],weak
same,EC50,[7],260 ± 30 µM
same,binding,[8],no
same,binding,[9],no
same,binding,[10],no
same,binding,[11],no
same,binding,[12],no
same,binding,[13],no
same,binding,[14],no
same,binding,[15],no
CNC(=N)N,apparent KD,[1]; Figure 5 legend prints ±0.6,4100 ± 500 µM
same,EC50,[7],2700 ± 700 µM
NC(N)=O,binding,[1],no
same,binding,[7],no
N=C(N)NN,apparent KD,[1],7500 ± 800 µM
same,EC50,[7],3800 ± 500 µM
N=C(N)NCCC[C@H](N)C(=O)O,binding,[1],no
same,binding,[7],no
